This note sets out measurements from patent publication US20060105013A1, “Osteopontin-coated surfaces and methods of use” (priority 2000, published 2006).

One series addresses αvβ3 integrin (human) (UniProt P06756). As to the kind of experiment: cell-based or functional assay.
The target of the next series is CD44 (human) (UniProt P16070). As to the kind of experiment: cell-based or functional assay.
A further series has as its target αβ1 integrin (human) (UniProt P05556). Briefly: cell-based or functional assay.
The test system of series [1] is human osteoprogenitor cells. Briefly: Peptide binding: attachment and spreading of human osteoprogenitor cells on coated plates. Format: cell-based. As to the method: Example 11 analyzes the binding and cell spread activity of various peptides. The activities were measured in 24-well plates that were coated overnight at 4° C. with 10 μg/ml of the indicated ligand or peptide and then blocked for one hour at room temperature with 10 mg/ml BSA (Bovine Serum Albumin) in PBS (Phosphate Buffered Saline). To preserve the integrity of the adhesion receptors osteoprogenitor cells were harvested from sub-confluent cultures by non-enzymatic cell dissociation solution (Sigma, St. Louis, Mo.). Cells were washed twice with PBS and re-suspended at a concentration of 1×10^5 cells/ml of sterile Ca^2+- and Mg^2+-free PBS, supplemented with 0.1% BSA and 1 mM sodium pyruvate. 5×10^4 cells were incubated in each well and, after one hour at 37° C., the wells were washed three times with 0.5 ml PBS to remove non-adherent cells, fixed in 1% glutaraldehyde in 0.1 M cacodylate buffer (pH 7.4) at room temperature for one hour then stained with toluidine blue and hematoxylin. The total number of attached or spread cells in each well were counted microscopically using a Nikon Eclipse microscope equipped with a Sony digital camera. Total number of attached or spread cells were quantified using an Optima 5.2 image analysis system. Each experiment was done in triplicate and is reported as mean+/−standard error. To minimize variability inherent to cell attachment studies cells were scored as attached only when a defined nucleus observed accompanied by a transition from round to cuboidal cell morphology. Round cells that are loosely attached with no defined nucleus were scored as non-attached. These cells can be removed with repeated washes. The viability of the cells was measured before and after the termination of the experiments and only data from experiments with greater than 95% cell viability were used. […] Cell spreading was determined by membrane contour analysis and was scored according to increase in cell volume/surface area. Because of this change in cell volume/surface area, cell spreading is a measure of a change in cellular development. In some experiments, cell spreading was also assessed by the formation of stress fibers. The formation of stress fibers and/or changes in cell volume/surface area are each characteristics of cells undergoing differentiation. Each experiment was performed in quadruplicate wells and repeated three times.
5000 total human osteoprogenitor cells were plated on either uncoated plates or coated and incubated at 37° C. in a humidified atmosphere (95% air, 5% CO2). After 30 minutes, unattached cells were removed and the plates were washed with PBS. The total number of attached cells was determined as described in the materials and methods. In some experiments (labeled with an “#” in Table 8), antibodies ([…]) against various integrins were incubated with the cells for 15 minutes prior to plating.

The test system of a further series is HOS cells. As to the kind of experiment: Attachment of HOS cells to plastic, glass or chromocobalt surfaces coated with OPN. Type of series: cell-based, human. The settings on record: 1 hour. As to the method:
500 cells were plated on coated plastic, glass or chromocobalt surfaces and incubated at 37° C. in a humidified atmosphere (95% air 5% CO2). Surfaces were coated with either human recombinant phosphorylated OPN (rhOPN) or unphosphorylated OPN. Fibronectin coated surfaces were used as a control. After 1 hour, unattached cells were removed and the surfaces were washed with PBS. The total number of attached cells was determined for the total cpm released for the surfaces after the cells were lysed with 10% TCA and solubilized in 5 ml scintillation fluid. All measurements were done in triplicates.

Series [2] has as its system canine model. As to the kind of experiment: Safety assessment (serum chemistry, hematology, antibody) after coated implant treatment in dogs. Format: in vivo, dog. As to conditions: dogs with coated implants; vs baseline. From the text:
The issue of safety was also addressed by assessing the serum chemistry, hematology and antibody results following treatment. […] Therefore, rOPN and OC-1016 are safe based upon these evaluations.

The subject of series [3] is canine model. Briefly: Osseointegration of coated TPS dental implants in canine model (bone to implant contact, bone density). Type of series: in vivo, dog. The settings on record: coating 200 μg/ml. From the text:
Canine models allow the use of implant designs and sizes commonly used in clinical applications.
Mandibular premolars and first molars were extracted bilaterally in a total of twelve dogs. After a healing period of three months, 6 implants TPS (ITI 4.1×8 mm) were placed in each mandibular quadrant. Test coatings of rOPN and mOC-1016 and non-coated TPS control wre used. A randomized distrubution of tests and controls were incorporated.
Large hounds were used in this Example. For all surgical procedures (extractions, implant placement, suture removal), after sedation with acepromazine (0.1 mg/kgS.C.), the animals were anesthetized using pentobarbitol (20 mg/kg I.V.). Antibiotics (bicillin 200,000 u I.M.) and ibuprofen for pain control (200 mg/dog/day P.O.) were given for extraction and implant placement surgeries. For sacrifice, an overdose of pentobarbitol (50 mg/kg I.V. after sedation with acepromazine 0.1 mg/kg S.C.) was administered.
The implant and it's surrounding tissue were dissected in block, fixed in 4% formaldehyde and imbedded in PMMA. The osseointegration of the implant was measured as percent of directly apposed bone versus total implant area by contour analysis using an image analysis system. The extent of new mineralized bone (in percent) in the area between the major and minor diameter of the implant was also determined.

[4] abbreviates: cells pre-incubated with Anti-CD44.
Where [5] appears, read: cells pre-incubated with Anti-αvβ3.
The mark [6] stands for this setting: cells pre-incubated with Anti-αβ1.

Chain of UniProt P05556 (P05556 21-798): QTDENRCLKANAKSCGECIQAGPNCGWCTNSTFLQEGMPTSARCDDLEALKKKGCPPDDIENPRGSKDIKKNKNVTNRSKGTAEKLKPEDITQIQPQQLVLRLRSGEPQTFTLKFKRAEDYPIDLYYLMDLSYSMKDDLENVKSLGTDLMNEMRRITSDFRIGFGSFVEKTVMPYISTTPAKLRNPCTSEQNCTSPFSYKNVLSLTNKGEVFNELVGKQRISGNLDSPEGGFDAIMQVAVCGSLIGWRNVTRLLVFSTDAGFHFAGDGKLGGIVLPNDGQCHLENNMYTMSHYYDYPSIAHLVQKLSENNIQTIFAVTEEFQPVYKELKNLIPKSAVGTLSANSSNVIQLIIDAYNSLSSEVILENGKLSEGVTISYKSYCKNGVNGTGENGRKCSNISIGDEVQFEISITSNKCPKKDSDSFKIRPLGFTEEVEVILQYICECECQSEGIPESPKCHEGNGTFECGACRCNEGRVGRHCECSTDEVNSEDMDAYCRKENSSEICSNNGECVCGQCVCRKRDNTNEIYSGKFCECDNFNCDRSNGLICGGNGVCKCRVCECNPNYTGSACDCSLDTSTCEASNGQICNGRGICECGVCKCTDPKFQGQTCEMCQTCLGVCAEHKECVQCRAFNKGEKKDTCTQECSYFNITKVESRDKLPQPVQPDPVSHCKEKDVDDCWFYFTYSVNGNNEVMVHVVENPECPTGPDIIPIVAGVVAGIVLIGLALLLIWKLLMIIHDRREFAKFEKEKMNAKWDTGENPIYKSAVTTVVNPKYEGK
Chain of UniProt P06756 (P06756 31-1048, chain 1 of 2): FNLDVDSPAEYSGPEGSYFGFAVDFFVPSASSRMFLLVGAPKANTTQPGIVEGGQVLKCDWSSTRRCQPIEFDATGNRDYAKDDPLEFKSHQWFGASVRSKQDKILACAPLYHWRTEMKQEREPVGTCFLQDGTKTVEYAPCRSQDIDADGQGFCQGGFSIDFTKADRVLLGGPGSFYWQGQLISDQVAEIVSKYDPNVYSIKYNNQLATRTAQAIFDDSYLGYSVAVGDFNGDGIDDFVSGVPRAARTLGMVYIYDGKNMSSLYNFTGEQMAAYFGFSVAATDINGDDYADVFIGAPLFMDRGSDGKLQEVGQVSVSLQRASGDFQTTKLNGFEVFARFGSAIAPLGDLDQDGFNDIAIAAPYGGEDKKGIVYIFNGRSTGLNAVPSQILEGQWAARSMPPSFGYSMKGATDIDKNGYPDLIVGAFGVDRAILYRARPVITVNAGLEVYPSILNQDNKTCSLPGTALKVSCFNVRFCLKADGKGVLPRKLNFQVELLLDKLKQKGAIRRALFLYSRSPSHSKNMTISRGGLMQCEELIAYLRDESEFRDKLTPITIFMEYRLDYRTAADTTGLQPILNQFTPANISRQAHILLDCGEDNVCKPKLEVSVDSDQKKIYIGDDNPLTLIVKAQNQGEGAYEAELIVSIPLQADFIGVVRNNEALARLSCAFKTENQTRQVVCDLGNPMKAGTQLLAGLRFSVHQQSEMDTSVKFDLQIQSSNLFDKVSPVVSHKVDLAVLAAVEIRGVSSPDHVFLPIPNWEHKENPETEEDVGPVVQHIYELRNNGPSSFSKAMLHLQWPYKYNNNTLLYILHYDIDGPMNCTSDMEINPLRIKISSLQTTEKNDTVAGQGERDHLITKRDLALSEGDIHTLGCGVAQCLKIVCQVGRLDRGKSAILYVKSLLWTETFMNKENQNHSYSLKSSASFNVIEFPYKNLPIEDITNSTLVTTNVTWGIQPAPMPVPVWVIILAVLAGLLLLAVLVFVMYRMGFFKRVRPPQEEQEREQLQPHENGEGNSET
Chain of UniProt P06756 (P05106 27-788, chain 2 of 2, further chain): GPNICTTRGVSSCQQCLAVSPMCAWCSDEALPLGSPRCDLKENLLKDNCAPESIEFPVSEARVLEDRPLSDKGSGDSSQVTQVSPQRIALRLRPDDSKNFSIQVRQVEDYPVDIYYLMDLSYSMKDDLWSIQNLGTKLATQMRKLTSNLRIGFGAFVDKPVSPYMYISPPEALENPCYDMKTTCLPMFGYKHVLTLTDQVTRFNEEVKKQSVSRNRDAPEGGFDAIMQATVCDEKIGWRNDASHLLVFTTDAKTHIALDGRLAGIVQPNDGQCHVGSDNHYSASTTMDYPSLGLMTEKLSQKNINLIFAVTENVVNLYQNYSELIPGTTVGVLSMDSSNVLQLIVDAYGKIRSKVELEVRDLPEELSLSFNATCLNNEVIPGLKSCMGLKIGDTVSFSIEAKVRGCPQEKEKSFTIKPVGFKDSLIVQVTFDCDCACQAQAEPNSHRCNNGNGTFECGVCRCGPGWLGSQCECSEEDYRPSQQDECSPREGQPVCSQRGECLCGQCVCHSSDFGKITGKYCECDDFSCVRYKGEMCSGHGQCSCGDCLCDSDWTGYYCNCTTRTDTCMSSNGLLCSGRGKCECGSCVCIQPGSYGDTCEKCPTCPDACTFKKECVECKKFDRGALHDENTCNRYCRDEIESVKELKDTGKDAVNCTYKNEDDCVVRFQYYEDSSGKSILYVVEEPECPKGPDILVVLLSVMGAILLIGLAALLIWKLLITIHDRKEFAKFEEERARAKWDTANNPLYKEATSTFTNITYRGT
Chain of UniProt P16070 (P16070 21-742): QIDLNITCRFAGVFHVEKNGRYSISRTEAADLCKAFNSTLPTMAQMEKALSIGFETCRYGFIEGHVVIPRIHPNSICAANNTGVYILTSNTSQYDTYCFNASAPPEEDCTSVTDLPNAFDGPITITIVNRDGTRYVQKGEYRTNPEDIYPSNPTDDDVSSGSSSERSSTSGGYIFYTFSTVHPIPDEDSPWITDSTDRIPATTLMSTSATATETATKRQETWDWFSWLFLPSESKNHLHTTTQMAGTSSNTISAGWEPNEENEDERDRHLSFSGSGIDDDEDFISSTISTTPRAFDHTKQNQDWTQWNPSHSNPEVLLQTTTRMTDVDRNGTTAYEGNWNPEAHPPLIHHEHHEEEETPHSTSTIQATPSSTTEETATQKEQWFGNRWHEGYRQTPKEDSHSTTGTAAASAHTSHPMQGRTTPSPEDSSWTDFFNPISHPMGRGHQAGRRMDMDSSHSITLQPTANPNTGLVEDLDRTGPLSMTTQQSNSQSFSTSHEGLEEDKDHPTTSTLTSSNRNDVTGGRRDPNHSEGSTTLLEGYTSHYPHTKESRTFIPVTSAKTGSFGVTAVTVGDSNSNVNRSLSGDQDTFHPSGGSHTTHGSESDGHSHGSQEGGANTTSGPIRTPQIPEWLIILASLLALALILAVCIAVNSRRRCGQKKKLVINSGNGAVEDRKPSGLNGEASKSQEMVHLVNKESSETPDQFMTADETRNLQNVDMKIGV

In the series with αvβ3 integrin (human), “Osteopontin (from UniProt P10451 17-314) (ligand)” gave a % Spread (# Anti-αvβ3) of 24.8% and a % total attached cells (# Anti-αvβ3) of 69.2%. In the series with CD44 (human), this substance had a % Spread (# Anti-CD44) of 46.4% and a % total attached cells (# Anti-CD44) of 66%. Moreover, in the series with αβ1 integrin (human), the % Spread (# Anti-αβ1) came out at 56.6% and the % total attached cells (# Anti-αβ1) came out at 74.8%.
Turning to “DTFTPIVPTVDVPNGRFDSLAYGLKSKSKKFQ [SEQ ID NO: 13]”, in series [1] (no antibody, coated plates), the “% Spread” value was 100.0% and the “% total attached cells” value is 91.1%.
On to Fibronectin [reference compound], for which the “% total attached” value was 91.6% with HOS cells (Plastic surface), 54.8% in the series with HOS cells (chromocobalt (CrCo) surface) and 89.6% with HOS cells (glass surface).
As for “rOPN: Recombinant Osteopontin coated on TPS dental implants; printed as OPN in Tables 4-7”, the “serum chemistry, hematology and antibody results following treatment” value in the series with canine model [2] is listed as “no clinically significant differences from baseline”. Moreover, the “Mean Percent Bone Density” value in the series on canine model [3] (4 weeks) was determined as 70.9%. Moreover, the “Mean Percent Bone to Implant Contact” value in the series with canine model [3] (4 weeks) worked out at 65.6%; with canine model [3] (12 weeks), 62.5%.
Regarding “OPN: Table 2: unphosphorylated OPN used as surface coating”, the “% total attached” value in the series on HOS cells (Plastic surface) turned out to be 43.6%; in the series on HOS cells (chromocobalt (CrCo) surface) it was 4%; with HOS cells (glass surface), 37.2%. Also, the “Mean Percent Bone Density” value in the series on canine model [3] (4 weeks) turned out to be 70.5%; with canine model [3] (12 weeks) it was 56.9%. For the same substance, the “Mean Percent Bone to Implant Contact” value was 65.6% in the series on canine model [3] (4 weeks) and 62.5% with canine model [3] (12 weeks).
Take “Osteopontin: osteopontin used to coat plates in Table 8; form not specified”: the “% Spread” value was determined as 46.4% in series [1] (setting [4]); 24.8% in series [1] (setting [5]); 56.6% in series [1] (setting [6]); 78.4% in series [1] (no antibody, coated plates). For the same substance, the “% total attached cells” value is recorded as 66% in series [1] (setting [4]); 69.2% in series [1] (setting [5]); 74.8% in series [1] (setting [6]); 78.4% in series [1] (no antibody, coated plates).
